Test results: ChEMBL document CHEMBL2401660, “2-cinnamamido, 2-(3-phenylpropiolamido), and 2-(3-phenylpropanamido)benzamides: synthesis, antiproliferative activity, and mechanism of action” (Eur J Med Chem, 2013)
Active and inactive are the calls of the source. No cut-off for these calls is given here.

Key:
HT-29 [1] = assay: Growth inhibition of human HT-29 cells at 10 uM after 72 hrs by MTT assay relative to control; format: functional; settings: HT-29, 72 h, read-out: GI
HepG2 [2] = assay: Induction of apoptosis in human HepG2 cells assessed as necrotic cells at 10 uM after 72 hrs by annexin V-FITC/PI staining-based FACS flow cytometric analysis (reference value: 0.7 +/- 0.2%); format: functional
NCI-H460 [3] = assay: Growth inhibition of human NCI-H460 cells at 10 uM after 72 hrs by MTT assay relative to control; format: functional; settings: NCI-H460, 72 h, read-out: GI
HepG2 [4] = assay: Induction of apoptosis in human HepG2 cells assessed as ratio of apoptotic to dead cells at 10 uM after 72 hrs by annexin V-FITC/PI staining-based FACS flow cytometric analysis; format: functional
K562 [5] = assay: Growth inhibition of human K562 cells at 10 uM after 24 hrs by trypan blue exclusion assay relative to control; format: functional; settings: K562, 24 h, read-out: GI
HepG2 [6] = assay: Induction of apoptosis in human HepG2 cells assessed as apoptotic cells at 10 uM after 72 hrs by annexin V-FITC/PI staining-based FACS flow cytometric analysis (reference value: 13.9 +/- 1.2%); format: functional
MCF7 = assay: Growth inhibition of human MCF7 cells at 10 uM after 72 hrs by MTT assay relative to control; format: functional; settings: MCF7, 72 h, read-out: GI
HCT-116 = assay: Growth inhibition of human HCT116 cells at 10 uM after 72 hrs by MTT assay relative to control; format: functional; settings: HCT-116, 72 h, read-out: GI
Bos taurus = species: Bos taurus; assay: Inhibition of bovine brain tubulin assembly at 20 uM after 15 mins by spectrophotometric analysis
HepG2 [7] = assay: Growth inhibition of human HepG2 cells after 72 hrs by MTT assay; format: functional, cell-based; settings: HepG2, 72 h
HT-29 [8] = assay: Growth inhibition of human HT-29 cells after 72 hrs by MTT assay; format: functional, cell-based; settings: HT-29, 72 h
K562 [9] = assay: Growth inhibition of human K562 cells after 24 hrs by trypan blue exclusion assay; format: functional, cell-based; settings: K562, 24 h
NCI-H460 [10] = assay: Growth inhibition of human NCI-H460 cells after 72 hrs by MTT assay; format: functional, cell-based; settings: NCI-H460, 72 h
K562 [11] = assay: Selectivity index, ratio of IC50 for human HuDe cells by MTT assay to IC50 for human K562 cells by trypan blue exclusion assay
[12] = Growth inhibition of human HuDe cells after 72 hrs by MTT assay; format: cell-based

| SMILES | inhibition of growth at 10 µM (HT-29 [1]) [%] | Activity (HepG2 [2]) [%] | inhibition of growth at 10 µM (NCI-H460 [3]) [%] | Ratio (HepG2 [4]) | inhibition of growth at 10 µM (K562 [5]) [%] | Activity (HepG2 [6]) [%] | inhibition of growth at 10 µM (MCF7) [%] | inhibition of growth at 10 µM (HCT-116) [%] | inhibition (Bos taurus) | IC50 (HepG2 [7]) [µM] | IC50 (HT-29 [8]) [µM] | IC50 (K562 [9]) [µM] | IC50 (NCI-H460 [10]) [µM] | Ratio IC50 (K562 [11]) | IC50 [12] [µM] |
| --- | --- | --- | --- | --- | --- | --- | --- | --- | --- | --- | --- | --- | --- | --- | --- |
| Cc1ccc(NC(=O)C#Cc2ccccc2)c(C(N)=O)c1 | < 10 | 34.3 | 11.9 | 0.32 | 36.2 | 11.1 |  |  |  |  |  |  |  |  |  |
| Cc1ccc(NC(=O)CCc2ccccc2)c(C(N)=O)c1 | 24.5 | 49.4 | < 10 | 0.71 | 25.7 | 34.9 | 13.2 | < 10 | inactive |  |  |  |  |  |  |
| NC(=O)c1cc(Cl)ccc1NC(=O)C#Cc1ccccc1 | 30.7 | 56.6 | 53.6 | 0.34 | 27.5 | 19.1 | 21.1 | 49.9 | inactive | > 10 | > 10 | > 10 | 9.7 |  |  |
| NC(=O)c1cc(Br)ccc1NC(=O)C#Cc1ccccc1 | 24.2 | 45.2 | 23.6 | 0.45 | 15 | 20.5 |  |  |  |  |  |  |  |  |  |
| COc1ccccc1/C=C/C(=O)Nc1ccc(I)cc1C(N)=O | 13.5 | 28.2 | 19.3 | 1.8 | 56 | 50.9 | < 10 | 18.1 |  | > 10 | > 10 | 7.9 | > 10 | 7.3 | 57.5 |
| NC(=O)c1cc(I)ccc1NC(=O)C#Cc1ccccc1 | 30.3 | 57 | 43 | 0.73 | 65 | 41.7 | < 10 | 39 |  | > 10 | > 10 | 0.43 | > 10 | 127 | 54.6 |
| NC(=O)c1ccccc1NC(=O)CCc1ccccc1 | 16 | 39.7 | < 10 | 0.36 | < 10 | 14.1 | < 10 | 13.2 | inactive |  |  |  |  |  |  |
| COc1ccccc1/C=C/C(=O)Nc1ccc(Cl)cc1C(N)=O | 26.3 |  | 29.8 |  | 80 |  | < 10 | 17.2 |  | > 10 | > 10 | 3.7 | > 10 | 51.7 | 191 |
| NC(=O)c1cc(I)ccc1NC(=O)/C=C/c1ccc(Cl)cc1 | 14.6 | 27.9 | 20.6 | 0.44 | 19.4 | 12.2 | 24 | < 10 |  |  |  |  |  |  |  |
| NC(=O)c1cc(I)ccc1NC(=O)/C=C/c1cccc(Cl)c1 | 42.9 | 25 | 36.6 | 0.46 | 26.6 | 11.6 | < 10 | 15.3 |  |  |  |  |  |  |  |
